# Test results from PubChem BioAssay (NCI).
#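 96-well plates; 48 h exposure; 5 concentrations. Endpoints by linear interpolation between flanking doses. Not reached: highest tested concentration assigned. GI50 is the concentration that inhibits growth by half. TGI marks complete inhibition of growth.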
# Columns and labels:
# Assay in all cases: NCI-60 cell line screen, 48 h
# [1] = system: NCI-H460 lung
# [2] = system: NCI-H226 lung
# [3] = system: HCT-116 colon
# [4] = system: UACC-257 melanoma
# [5] = system: CAKI-1 renal
# [6] = system: COLO 205 colon
# [7] = system: HT29 colon
# [8] = system: SR leukemia
# [9] = system: K-562 leukemia
# [10] = system: A498 renal
Structure (SMILES),TGI [1] [µM],TGI [2] [µM],TGI [3] [µM],TGI [4] [µM],TGI [5] [µM],TGI [6] [µM],TGI [7] [µM],TGI [8] [µM],TGI [9] [µM],TGI [10] [µM],GI50 [1] [µM],GI50 [2] [µM],GI50 [3] [µM],GI50 [10] [µM],GI50 [4] [µM],GI50 [5] [µM],GI50 [6] [µM],GI50 [7] [µM],GI50 [8] [µM],GI50 [9] [µM]
O=C(CCCCCCCCCCc1ccccc1)c1c(O)cccc1O,39.6,41.8,48.3,38.8,74.8,56.5,88,63.4,58.7,–,–,–,–,–,–,–,–,–,–,–
CC1CCC(O)C(C(O)CC2CC(=O)N(C)C(=O)C2)C1 (centres undefined),> 100,> 100,> 100,> 100,> 100,> 100,> 100,> 100,> 100,> 100,–,–,–,–,–,–,–,–,–,–
O=C(N[C@@H]1CCCc2ccccc21)[C@H](CCC(=O)N1CCN(C2CCCCC2)CC1)N1C(=O)[C@@H](N2C(=O)OC[C@@H]2c2ccccc2)[C@H]1/C=C/c1ccccc1,7.23,18.4,4.68,3.36,6.8,3.52,5.21,> 100,–,5.3,2.65,4.29,1.8,1.76,1.49,1.92,1.59,1.99,2.68,–
O=C1c2ccccc2-c2cc3ccccc3c(=O)n21,> 100,–,> 100,> 100,–,> 100,> 100,> 100,> 100,–,–,–,–,–,–,–,–,–,–,–
COc1ccc([Se]c2ccc(OC)cc2OC)c(OC)c1,> 100,83.3,46.5,> 100,> 100,27.1,29.7,45.7,> 100,70.3,–,–,–,–,–,–,–,–,–,–
CCOC(=O)/C=C1\Nc2ccccc2C(c2ccccc2)=NC1OC(C)=O (centres undefined),> 100,–,> 100,> 100,> 100,> 100,> 100,> 100,> 100,> 100,–,–,–,–,–,–,–,–,–,–
c1ccc(SCCCC(Sc2ccccc2)Sc2ccccc2)cc1,> 100,–,> 100,> 100,> 100,> 100,–,> 100,> 100,> 100,–,–,–,–,–,–,–,–,–,–
Brc1ccc2c(c1)C1(c3cc(Br)ccc3-2)c2cc(Br)ccc2-c2ccc(Br)cc21,> 100,> 100,> 100,> 100,> 100,> 100,> 100,> 100,> 100,–,–,–,–,–,–,–,–,–,–,–
O=C(/C=C/N1CCN(c2cccc(C(F)(F)F)c2)CC1)c1ccc(Cl)cc1Cl,97.3,–,50.2,61,41.3,> 100,> 100,56,> 100,38.8,30.9,–,23.6,21.6,26.5,22.7,36.2,38.6,30.1,35.8
COc1ccc2c(c1O)[C@@]13C=C(O)C(=O)C=C1[C@@H](C2)N(C)CC3,> 100,> 100,> 100,> 100,> 100,> 100,> 100,> 100,> 100,–,–,–,–,–,–,–,–,–,–,–
O=c1[nH]c(=O)n(C2CC(O)C(CO)O2)cc1C#Cc1ccc(C(F)(F)F)cc1 (centres undefined),> 100,> 100,> 100,> 100,–,> 100,> 100,> 100,> 100,–,–,–,–,–,–,–,–,–,–,–
CCC1OCCN1C(C)C (centres undefined),> 100,–,> 100,> 100,–,> 100,–,> 100,> 100,> 100,–,–,–,–,–,–,–,–,–,–
COC(=O)/C(C#N)=C1\N=NNN1CCCN1CCOCC1,> 100,> 100,> 100,> 100,> 100,> 100,> 100,–,> 100,> 100,–,–,–,–,–,–,–,–,–,–
CCOC(=O)c1cnc2[nH]c(=O)c3ccccc3n2c1=O,> 100,> 100,> 100,> 100,> 100,> 100,> 100,> 100,> 100,–,–,–,–,–,–,–,–,–,–,–
Cc1ccc(C2=Nc3c(N)ncnc3NC(c3cccc(Nc4ccnc5cc(C(F)(F)F)ccc45)c3)C2)cc1 (centres undefined),10.5,> 100,10.5,84.9,15.2,7.03,7.29,–,> 100,6.81,3.07,15.2,2.86,1.76,10.2,3.15,2.64,2.45,–,3.44
CC1=NN(C(=O)CC(=O)Nc2cccc(Cl)c2)C(=O)C1N=Nc1ccc(S(N)(=O)=O)cc1 (centres undefined),> 100,> 100,> 100,> 100,> 100,> 100,> 100,> 100,–,> 100,–,–,–,–,–,–,–,–,–,–
COc1ccc(C2=CC(c3cc(OC)c(OC)c(OC)c3)n3ncnc3N2)cc1 (centres undefined),13.7,71,> 100,–,–,0.16,11.2,> 100,> 100,25.1,0.0418,7.99,0.0401,0.0426,–,–,0.0335,0.0381,0.0439,0.0359
N#CC1c2ccccc2-c2ccccc2N1C(=O)c1ccccc1 (centres undefined),10.9,> 100,9.22,> 54.5,–,3.67,> 25.3,–,–,5.55,3.06,3.11,1.74,1.32,5.32,–,1.56,1.1,2.92,1.04
Cn1c(=O)c2c3oc(=O)cc(O)c3c(=O)n3c4ccccc4n(c1=O)c23,> 100,–,> 100,82.9,> 100,72.6,> 100,> 100,65.8,> 100,–,–,–,–,–,–,–,–,–,–
O=c1oc(-c2ccc(O)c(O)c2)cc2cc(O)cc(O)c12,> 100,–,> 100,> 100,> 100,> 100,> 100,> 100,> 100,56.7,31,–,29.8,27.3,38,33.6,41.8,71.5,8.26,41.6
O=C1c2cccnc2C(=O)c2c1c(C(=O)OCCCN1CCOCC1)c1ccccn21,–,–,0.184,0.0758,0.0509,0.308,2.18,> 100,–,2.09,–,–,< 0.01,0.0295,0.0182,< 0.01,0.0553,0.354,< 0.01,< 0.0124
COC(=O)/C(=N\NC(=O)c1ccccc1O)C(C#N)c1ccc(Cl)cc1 (centres undefined),> 100,–,> 100,> 100,–,> 100,> 100,> 100,> 100,> 100,–,–,–,–,–,–,–,–,–,–
O=C(Cc1nc2ccc(C(=O)c3ccccc3)cc2[nH]c1=O)C(=O)Nc1ccccc1[N+](=O)[O-],> 100,> 100,> 100,> 100,> 100,–,> 100,> 100,> 100,> 100,–,–,–,–,–,–,–,–,–,–
CCCCCCCCCCCCCCCC[N+]1(CC)CCCC1,1.62,5.95,1.4,3.76,11.3,0.731,–,4.42,–,2.94,0.437,1.18,0.361,0.397,1.58,1.75,0.291,–,0.655,–
CC1Cc2c(N(C)C)ncnc2N(C)c2ccc(Cl)cc21 (centres undefined),46.6,57.8,23.6,–,> 100,6.55,37,20.3,> 100,19.2,3.86,11,3.48,3.53,–,3.12,2.44,3.22,0.463,0.781
O=C(CCCCCCCCC(=O)OCC1OC(n2cnc3c(=O)[nH]cnc32)C(O)C1O)OCC1OC(n2cnc3c(=O)[nH]cnc32)C(O)C1O (centres undefined),> 100,> 100,> 100,> 100,> 100,> 100,> 100,–,> 100,> 100,–,–,–,–,–,–,–,–,–,–
CC[C@]12C=CCN3CC[C@]4(C(=C(C(=O)OC)C1)Nc1cc(O)ccc14)[C@@H]32,38.5,–,34.3,85.9,37.1,47.3,63.1,> 100,> 100,36.5,18.9,–,16.2,18.1,25.8,14.1,21.8,19.9,12.3,7.59
